*1 amine or outer side, *2 acyl side, *3 side chain or, on linkers, in order; H or OH if unused. Where a SMILES comes first, the peptide text is derived from it. Side-chain parts run from the residue outwards. [ ]: non-standard residue; d: D form. The star is where a group is joined. C18 diacid = O=C(O)CCCCCCCCCCCCCCCCC(=O)*; γGlu = O=C(O)[C@H](CCC(=O)[*:2])N[*:1]; NMeI = CC[C@H](C)[C@H](NC)C(=O)O; Aib = CC(C)(N)C(=O)O
How the values were obtained:
rat CRF2 a = target: T1, rat CRF2 a (Rattus norvegicus, UniProt P47866); test: Activity at rat CRF2 a, cAMP assay in A7R5 rat aortic smooth muscle cells; format: cell-based; conditions: 0% HSA, 100% = Sauvagine at 100 nM
T1 construct: host or cells: A7R5 rat aortic smooth muscle cells
Description: The A7R5 rat aortic smooth muscle cell line used in this study was purchased from ATCC.
Cells were grown in a 10 cm dish at 37° C./5% CO2 in medium (DMEM/10% FBS) to near confluence. At that stage, cells were harvested, resuspended to 10 million/mL in culture medium and with 5% DMSO. 1 mL vial aliquots were slowly frozen to −80° C. in isopropanol and then transferred in liquid nitrogen for storage.
These vials were used to run the experiment following the procedure reported in the previous paragraph, except for the compound used in the control well to define the 100% activation (Sauvagine at 100 nM) and the cell density (final cell density: 5000 cells/well).

[1] = In vitro subcutaneous tissue supernatant (SCts) stability and metabolite identification, rat; format: in vitro ADME; set-up: remaining at 2 h: dose or concentration left out as unconfirmed; conditions: male, Sprague Dawley; rat subcutaneous tissue supernatant (SCts), 37° C, 2 h
[2] = Chemical stability in buffer (pH 7.4 / pH 4.5), % purity loss; format: physicochemical; conditions: 100 mM phosphate buffer pH 7.4; 40° C. vs 5° C.; 14 or 28 days
How it was run: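 LC-UV gave % loss after 14 or 28 days of storage at 5 °C or 40 °C. Samples were diluted supernatants from compound incubated 1 h at room temperature at 10 mg/mL target, in 100 mM acetate pH 4.5 or 100 mM phosphate pH 7.4.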

[3] = Pharmacokinetics in male Sprague Dawley rats after subcutaneous administration; format: in vivo; conditions: plasma, rat, SC, 0.1 mg/kg
Sprague Dawley rats = test: Effect on systolic blood pressure, telemetry in Sprague Dawley rats; format: in vivo, rat; conditions: 0.1 mg/kg SC
How it was run: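 Values are % change from a 1 h pre-dose baseline in systolic pressure, tracked by telemetry for up to 48 hours after a single 0.1 mg/kg subcutaneous dose. Rats (Sprague Dawley, n=2 per peptide) carried aortic catheters and recovered at least 10 days post-surgery; duration of action marks the last time point still showing an effect.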

[4] = Pharmacokinetics in male Sprague Dawley rats after subcutaneous administration; format: in vivo; conditions: plasma, rat
Rat PLM = conditions: male Sprague Dawley rats, 37° C., up to 2 hours
Human PLM = conditions: 37° C., up to 2 hours

T1 sequence (P47866 27-431 isoform P47866-2 limits assumed): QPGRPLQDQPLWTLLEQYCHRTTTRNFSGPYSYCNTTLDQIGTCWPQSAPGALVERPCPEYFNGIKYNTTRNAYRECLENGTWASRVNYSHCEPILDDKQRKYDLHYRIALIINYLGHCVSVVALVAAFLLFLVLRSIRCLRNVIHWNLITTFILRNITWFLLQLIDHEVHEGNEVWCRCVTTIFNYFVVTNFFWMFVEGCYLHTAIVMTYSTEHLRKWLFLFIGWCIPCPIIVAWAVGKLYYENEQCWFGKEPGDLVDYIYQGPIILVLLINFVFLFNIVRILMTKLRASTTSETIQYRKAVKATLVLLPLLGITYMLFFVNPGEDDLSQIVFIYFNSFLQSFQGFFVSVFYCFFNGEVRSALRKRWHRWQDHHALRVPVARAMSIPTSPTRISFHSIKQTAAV

EC50 (rat CRF2 a) | remaining at 2 h [1] | Buffer stability pH 7.4 % purity loss [2] | AUC(0-t) [3] | Cmax [3] | AUC(0-t) ([4]; IV, 0.05 mg/kg) | half-life ([4]; IV, 0.05 mg/kg) | Tmax ([4]; SC, 0.1 mg/kg) | not cleaved (Rat PLM) | not cleaved (Human PLM) | Compound | Systolic blood pressure (Mean) % change from baseline, 8 h (Sprague Dawley rats; 8 h, n=2) | Systolic blood pressure (Mean) % change from baseline, 12 h (Sprague Dawley rats; 12 h, n=2) | Systolic blood pressure (Mean) % change from baseline, 24 h (Sprague Dawley rats; 24 h, n=2) | Duration of action (Sprague Dawley rats; last time point with an effect on BP still observed)
0.05 nM | 76% | 0.0/Not Tested % | 4200 ng·h/mL | 295 ng/mL | 4100 ng·h/mL | 5.8 h | 8 h |  |  | CC[C@H](C)[C@H](NC)C(=O)N[C@H](C(=O)N[C@@H](CC(C)C)C(=O)N[C@@H](CO)C(=O)N[C@@H](CC(C)C)C(=O)N[C@@H](CC(=O)O)C(=O)N[C@@H](C(=O)N1CCC[C@H]1C(=O)N[C@H](C(=O)N[C@@H](CCCCN)C(=O)N[C@@H](CC(C)C)C(=O)N[C@@H](CCCCNC(=O)CC[C@H](NC(=O)CCCCCCCCCCCCCCCCC(=O)O)C(=O)O)C(=O)N[C@@H](CCCCN)C(=O)N[C@H](C(=O)N[C@@H](CC(C)C)C(=O)N[C@@H](CC(C)C)C(=O)N[C@@H](CCC(=O)O)C(=O)N[C@@H](CCC(N)=O)C(=O)N[C@@H](CCC(=O)O)C(=O)N[C@@H](CCCCN)C(=O)N[C@@H](CCC(N)=O)C(=O)N[C@@H](CCCCN)C(=O)NC(C)(C)C(=O)N[C@@H](CCC(N)=O)C(=O)N[C@@H](CCCNC(=N)N)C(=O)N[C@@H](CCC(=O)O)C(=O)N[C@@H](CCC(N)=O)C(=O)N[C@@H](C)C(=O)N[C@@H](CCC(=O)O)C(=O)N[C@H](C(=O)N[C@@H](CC(N)=O)C(=O)NC(C)(C)C(=O)N[C@@H](CCC(N)=O)C(=O)N[C@H](C(=O)N[C@@H](CC(C)C)C(=O)N[C@@H](C)C(=O)N[C@@H](CCC(N)=O)C(=O)N[C@H](C(N)=O)C(C)C)[C@@H](C)CC)[C@@H](C)O)[C@@H](C)CC)[C@@H](C)CC)C(C)C)C(C)C [compound 145] (H-[NMeI]VLSLD[dV]PIKLK([γGlu-C18 diacid])KILLEQEKQK[Aib]QREQAETN[Aib]QILAQV-NH2) | −23% | −21% | −14% | >24 h
 |  |  |  |  |  |  |  | 96% remaining at 2 hours | 104% remaining at 2 hours | Ac-IVLSLDvPIKLK*KILLEQEKQKKQREQAETN4-PipQILAQV-NH2 |  |  |  | 
